Results as given in US11191850B2, “Molecular probes for detection and imaging of pancreatic cancer” (Portland State University, priority 2016, dated 2021).
Entries after “also recorded” stand apart in the source; their conditions may differ. Where two headings read alike, the source gives them in different places. Blank lines part the entries; values can stand above or below the molecule they belong to.

Key:
[1] = UV-Vis absorption and fluorescence spectroscopy; format: physicochemical; parameters: Brightness: unit not given here; conditions: for pH and solvent sensitivity of UV and fluorescence spectra: 10-15 μM, aqueous 10% DMSO with HCl, NaOH or pH 7.4 buffer, various solvents; for Quantum yield / λmax em / Brightness / Stokes shift: pH 7.4 buffer; for Extinction coefficient / λmax abs: pH 7.4 phosphate buffer, 10% DMSO
From the text: UV-Vis absorption and fluorescence spectroscopy. UV-Vis spectra were collected with a Cary 50 UV-Vis spectrophotometer at room temperature, using a 1-cm quartz cuvette. Fluorescence spectra were collected on a Cary Eclipse fluorescence spectrophotometer (Agilent Technologies). All absorbance spectra were reference corrected. Fluorescence spectra were corrected for the wavelength dependent response of the R928 photomultiplier tube using a manufacturer generated correction file. Quantum yields are reported as the average of multiple measurements using multiple references. Excitation emission matrices (EEMs) were collected over various spectral regions, using 5-nm step sizes for emission and 10-nm step sizes for excitation. The band pass for excitation and emission was 5 to 10 nm.
Probes 1-13 were screened for pH and solvent sensitivity. Solvent sensitivity or dependence is at least partially attributable to differences in the equilibria between tautomeric forms of the compounds in the various solvents evaluated. The fluorophore concentrations ranged from 10-15 μM. Aqueous solutions contained 10% DMSO and 12.5 mM HCl, 12.5 mM NaOH, or pH 7.4 phosphate buffer.

Capan-1 cells [2] = assay: Cell viability by CellTiter-Blue assay; format: cell-based, human; conditions: Capan-1, 24 h incubation, read-out: IC50 (cytotoxicity, cell viability)
Protocol: (§1) Cell culture. The human PDAC cell line Capan-1 was obtained from Dr. Rosalie Sears' laboratory and maintained in RPMI medium (Gibco) in a humid atmosphere at 37° C. with 5% CO2. All media were supplemented with 10% (v/v) fetal bovine serum (FBS), and 1% (v/v) penicillin/streptomycin. The cell viability was determined by Cell Titer-Blue® assay (Promega Corporation). Monolayers of 10^4 Capan-1 cells were seeded in triplicate in 96 well plates and incubated with decreasing concentration from 100 μM of each compound in growth media containing 10% FBS. After 24 h incubation time, 20 μL of CellTiter-Blue® reagent was added into each well, and culture cells were incubated for additional 2 h. Fluorescence intensity in each well was recorded at 560/590 nm in a SpectraMax® M5 Microplate Reader (Molecular Devices, LLC). The half maximal inhibitory concentration (IC50) of these three compounds were determined from interpolating values in the graph (% cell viability vs. fluorophore concentration). For comparison of cellular uptake rate in Capan-1 cells, absorbance of media was measured as background, and absorbance of supernatant was obtained to determine the cellular uptake by using absorbance of 10 μM fluorophore in cell free media as standard reference.
In vitro cell viability was assessed for compounds 2, 12 and 13 in a representative PDAC cell line, Capan-1. […]

Capan-1 cells [3] = assay: Subcellular localization by live cell imaging with organelle trackers; format: cell-based, human; conditions: Capan-1, 0.5 μM, 1 h incubation
Protocol: In vitro live cell imaging. Monolayers of 10^4 Capan-1 cells were seeded in triplicate in 8 well plates and incubated for 24 h in growth media containing 10% FBS and allowed to attach. For subcellular colocalization experiments, media was extracted and cells were washed with PBS, and phenol red-free growth medium was added to each well. Organelle trackers were added to each well, and incubated with the compound (final concentration 0.5 μM) of interest for 1 h. Cells were then washed with PBS and then fixed with 2% paraformaldehyde (PFA). Fluorescence microscopy was carried out using a Zeiss inverted microscope with an Axioscan fluorescence camera for imaging. Final concentration of organelle trackers used in this experiments, DAPI (4,6-diamidino-2-phenylindole) 0.5 μM, MitoTracker® Green (benzoxazolium 2-[3-[5,6-dichloro-1,3-bis[[4-(chloromethyl)-phenyl]methyl]-1,3-dihydro-2H-benzimidazol-2-ylidene]-1-propenyl]-3-methyl-chloride 201860-17-5v, ThermoFisher Scientific) 0.5 μM, and ER-Tracker™ Green (BODIPY® FL dye and glibenclamide; ThermoFisher Scientific) 1 μM.
The subcellular localization of 2, 12 and 13 was investigated in Capan-1 cells after 1 h incubation time. […] FIGS. 6A, 7A, and 8A show the red fluorescence of the three compounds, respectively, as well as blue fluorescence with DAPI (4,6-diamidino-2-phenylindole) FIGS. 6C, 7C, 8C) and green fluorescence with organelle-specific fluorescent probes—ER-Tracker™ Green (BODIPY® FL dye and glibenclamide; ThermoFisher Scientific) (FIGS. 6E, 7E, 8E) and MitoTracker® Green (benzoxazolium 2-[3-[5,6-dichloro-1,3-bis[[4-(chloromethyl)-phenyl]methyl]-1,3-dihydro-2H-benzimidazol-2-ylidene]-1-propenyl]-3-methyl-chloride201860-17-5v; ThermoFisher Scientific) (FIGS. 6G, 7G, 8G). Also shown are composite overlays of (i) phase contrast+compound fluorescence (FIGS. 6B, 7B, 8B), (ii) DAPI+compound fluorescence (FIGS. 6D, 7D, 8D), (iii) DAPI+ER-Tracker™ Green+compound fluorescence (FIGS. 6F, 7F, 8F), and (iv) DAPI+MitoTracker® Green+compound fluorescence (FIGS. 6H, 7H, 8H).

PDAC tumor tissue = assay: Intraoperative fluorescence imaging and ex vivo microscopy in PDAC tumor bearing mice; parameters: species or system mouse; conditions: 100 nmol systemic, n=5 PDAC mice, monitored over 1.5 h
Protocol: Systemic administration of fluorescent compounds. […] Fluorophores were diluted in PBS.
In vivo biodistribution imaging.
Ex vivo fluorescence microscopy, pathology, and immunofluorescence staining. Resected pancreas tissue from compound 12 in vivo biodistribution studies with PDAC tumor bearing mice was fixed with 2% PFA for 12 h, flash frozen in optimal cutting temperature (OCT) compound with liquid nitrogen, and stored at −80° C. Cryosections were cut at 10 μm onto Superfrost Plus slides (Fisherbrand, Fisher Scientific). Slides were mounted with Fluoromount-G (Southern Biotech, Birmingham, Ala.) and coverslipped. […] Images were acquired on an Axio Observer inverted fluorescence microscope (Zeiss, Thornwood, N.Y.) at 10, 20, or 40× magnification. […] Color images were collected using an Axiocam 105 camera (Zeiss) and fluorescence images were collected using an Axiocam 506 camera (Zeiss) where a 605±35 nm or 525±25 nm bandpass emission filter was used for compound 12 or Atto 488 fluorescence image collection, respectively.
Compound 12 was systemically administered to n=5 genetically modified PDAC mice. Pancreas specific fluorescence was monitored over 1.5 h. […] FIGS. 12B and 12C show real-time intraoperative fluorescence imaging of compound 12 in the PDAC mice. […]

pancreas tissue = assay: Ex vivo staining of pancreas tissue from healthy and PDAC mice; parameters: species or system mouse
From the text: Thus 12 enabled ex vivo staining to distinguish the features of healthy and PDAC tissue.

healthy CD-1 mice [4] = assay: In vivo biodistribution imaging after systemic administration; conditions: for clearance route and rate: 100 nmol i.v. (MB 120 nmol); for organ accumulation (in vivo biodistribution): 100 nmol i.v., 4 h distribution phase; for pancreas penetration / specificity: normal pancreas, systemic administration
Protocol: (§2) Animals. Approval for the use of all animals in this study was obtained from the Institutional Animal Care and Use Committee (IACUC) at Oregon Health and Science University (OHSU). Male CD-1 mice weighing 22-24 g were purchased from Charles River Laboratories (Wilmington, MA). […] All animals were placed on 5V75 chlorophyll free diet from TestDiet (St. Louis, Mo.) 1 week prior to any imaging studies. Prior to surgery, mice were anaesthetized with 100 mg/kg ketamine and 10 mg/kg xylazine (Patterson Veterinary, Devens, Mass.). The peritoneal cavity was surgically exposed by removal of overlaying skin and muscle tissue to image fluorophore biodistribution following intravenous injection.
(§3) Intraoperative fluorescence imaging system. In vivo murine biodistribution images and macroscopic images of resected tissues were acquired using a custom-built small animal imaging system capable of real time color and fluorescence imaging. The imaging system consists of a QImaging EXi Blue monochrome camera (Surrey, British Columbia, Calif.) for fluorescence detection with a removable Bayer filter for collecting co-registered color and fluorescence images. A PhotoFluor II light source (89 North, Burlington, Vt.) was focused onto the surgical field through a liquid light guide and used unfiltered for white light illumination. […] All filters were obtained from Chroma technology (Bellows Falls, Vt.). Camera exposure times ranged from 50 to 200 ms for fluorescence image collection.
(§4) Systemic administration of fluorescent compounds. […] Fluorophores were diluted in PBS. For comparison with previous studies, 120 nmol Methylene Blue was injected systemically. Mice were administered blank PBS for control images (n=3 mice per group, 5 groups).
(§5) In vivo biodistribution imaging. […] The peritoneal cavity was exposed and images were collected so that the bladder, adipose tissue, intestine, kidney, liver, muscle, pancreas, spleen, and stomach were visible within the field of view. For initial biodistribution studies images were collected immediately after injection and at 5, 15, 30, 60, 120, and 240 min following injection. […] Vehicle injected control animals were imaged on the same time course as fluorophore injected animals for initial testing or immediately following injection only for studies involving MB or PDAC tumor bearing mice to assess tissue autofluorescence for comparison to injected animals.
(§6) Fluorophore biodistribution kinetics were measured using region of interest analysis on images collected of the peritoneal cavity. Mean fluorescence intensities in each organ or tissue type were measured from images collected at each time point. All intensities were normalized to the muscle intensity at that time point by dividing by the measured muscle intensity. Using the normalized fluorescence intensities for each organ or tissue type, mean intensities were calculated for each group.
(§7) Upon completion of initial biodistribution studies, animals were euthanized and their organs were resected.

Capan-1 cells [5] = assay: In vitro time-dependent fluorophore uptake; format: cell-based, human; conditions: Capan-1, 10 μM
Protocol: as §1
In vitro time-dependent fluorophore uptake was also investigated in Capan-1 cells. […]

healthy CD-1 mice [6] = conditions: mouse, in vivo, iv
Protocol: as §2, §3, §4, §5, §6, §7

- Quantum yield ([1]; excited at 480 nm): 11.38%
- λmax em ([1]; excited at 480 nm): 622 nm
- Brightness ([1]; methyl ether derivatives): 2022
- Stokes shift ([1]; methyl ether derivatives): 40 nm
- Extinction coefficient ([1]; methyl ether derivatives): 17764 M⁻¹ cm⁻¹
- λmax abs ([1]; methyl ether derivatives): 582 nm
- uptake in normal pancreas tissue relative to MB (healthy CD-1 mice [4]; 12 100 nmol vs MB 120 nmol, i.v.): 4 fold
- pancreas penetration / specificity (healthy CD-1 mice [4]): improved pancreas specificity
SMILES: COC(=O)c1ccccc1C1=c2cc3c4c(c2Oc2c1ccc1cccc(OC)c21)CCC[N+]=4CCC3 [Compound 12, 15-methoxy-9-(2-(methoxycarbonyl)phenyl)-1,2,3,5,6,7-hexahydrobenzo[7,8]chromeno[2,3-f]pyrido[3,2,1-ij]quinolin-4-ium chloride]
- pH and solvent sensitivity of UV and fluorescence spectra [1]: insensitive to variations in pH or solvent
- IC50 (Capan-1 cells [2]): 17.8 µM
- site of intracellular localization (Capan-1 cells [3]): extensive accumulation in the mitochondria
- accumulation in PDAC tumor tissue vs surrounding tissue (PDAC tumor tissue): significantly higher than in the surrounding healthy tissue; also recorded: significantly higher than in the surrounding tissues and specific for the malignant cells
- ex vivo staining localization, cancerous (PDAC) tissue (pancreas tissue; PDAC mouse pancreas): localized in the PDAC-associated ductal epithelial cells
- ex vivo staining localization, healthy mouse pancreas tissue (pancreas tissue; healthy mouse pancreas): uptake of 12 in its abundant acinar cell population
- clearance route and rate (healthy CD-1 mice [4]): both renal and hepatic clearance; also recorded: cleared more slowly than compound 2; also recorded: greater hepatic excretion rate
- organ accumulation (in vivo biodistribution) (healthy CD-1 mice [4]): accumulated in the kidney, pancreas, and intestine
- fluorescence SBR in the pancreas compared to surrounding organs (healthy CD-1 mice [4]; 4-h time point): highest and most persistent fluorescence SBR in the pancreas

- Quantum yield ([1]; excited at 630 nm): 0.66%
- λmax em ([1]; excited at 630 nm): 740 nm
- Brightness ([1]; seminaphthorhodamines): 85
- Stokes shift ([1]; seminaphthorhodamines): 139 nm
- Extinction coefficient ([1]; seminaphthorhodamines): 12808 M⁻¹ cm⁻¹
- λmax abs ([1]; seminaphthorhodamines): 601 nm
- clearance route and rate (healthy CD-1 mice [4]): cleared more slowly than compound 2
- organ accumulation (in vivo biodistribution) (healthy CD-1 mice [4]): accumulated largely in the kidneys
- pancreas penetration / specificity (healthy CD-1 mice [4]): diminished pancreas accumulation
SMILES: COC(=O)c1ccccc1C1=c2cc3c4c(c2Oc2c1ccc1cccc(N)c21)CCC[N+]=4CCC3 [Compound 13, 15-amino-9-(2-(methoxycarbonyl)phenyl)-1,2,3,5,6,7-hexahydrobenzo[7,8]chromeno[2,3-f]pyrido[3,2,1-ij]quinolin-4-ium chloride]
- pH and solvent sensitivity of UV and fluorescence spectra [1]: not pH dependent, but were modestly solvent sensitive
- IC50 (Capan-1 cells [2]): 26.1 µM
- fluorophore uptake within 30 min of application (ranking) (Capan-1 cells [5]): greatest fluorophore uptake
- site of intracellular localization (Capan-1 cells [3]): extensive accumulation in the mitochondria

SMILES: CN(C)c1ccc2nc3ccc(=[N+](C)C)cc-3sc2c1 [MB, methylene blue, reference compound]
- clearance route and rate (healthy CD-1 mice [6]): preferentially and rapidly cleared through the renal system
- pancreas penetration / specificity (healthy CD-1 mice [4]): poor penetration into normal pancreas tissue; also recorded: diminished pancreas accumulation
